These results are taken from patent US20230091225A1, “Bifunctional chimeric heterocyclic compounds for targeted degradation of androgen receptors and use thereof” (HINOVA PHARMACEUTICALS INC., priority 2019, published 2023).

The assay concerns the target T1, androgen receptor (AR) (Homo sapiens, UniProt P10275).
T1 sequence (P10275 1-920): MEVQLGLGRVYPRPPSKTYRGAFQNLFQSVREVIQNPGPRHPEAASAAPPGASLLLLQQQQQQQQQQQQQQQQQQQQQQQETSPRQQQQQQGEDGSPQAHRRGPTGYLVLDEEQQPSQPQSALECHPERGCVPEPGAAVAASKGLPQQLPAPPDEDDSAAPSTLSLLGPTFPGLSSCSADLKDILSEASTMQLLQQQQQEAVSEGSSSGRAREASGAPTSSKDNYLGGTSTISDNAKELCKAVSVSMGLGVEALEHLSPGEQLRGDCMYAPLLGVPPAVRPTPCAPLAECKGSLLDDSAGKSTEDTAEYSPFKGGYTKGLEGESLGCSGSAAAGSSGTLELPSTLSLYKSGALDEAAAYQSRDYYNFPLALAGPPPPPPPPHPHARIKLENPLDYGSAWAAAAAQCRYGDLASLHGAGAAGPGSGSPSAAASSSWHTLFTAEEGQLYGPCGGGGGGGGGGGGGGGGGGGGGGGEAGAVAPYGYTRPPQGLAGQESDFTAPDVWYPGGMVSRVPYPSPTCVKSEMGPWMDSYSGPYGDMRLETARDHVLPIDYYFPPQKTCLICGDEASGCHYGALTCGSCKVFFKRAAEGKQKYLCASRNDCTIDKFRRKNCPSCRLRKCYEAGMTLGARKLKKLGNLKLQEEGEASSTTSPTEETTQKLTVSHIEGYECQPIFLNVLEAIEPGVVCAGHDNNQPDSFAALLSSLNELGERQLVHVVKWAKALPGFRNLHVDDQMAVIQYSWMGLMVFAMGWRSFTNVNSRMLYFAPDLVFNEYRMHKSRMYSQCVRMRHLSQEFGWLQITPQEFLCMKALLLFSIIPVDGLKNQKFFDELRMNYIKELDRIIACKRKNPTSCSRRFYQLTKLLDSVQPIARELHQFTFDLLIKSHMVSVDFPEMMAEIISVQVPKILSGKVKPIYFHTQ
In words: Degradation of androgen receptor (AR) protein in VCaP cells by Western blot. To be noted: percentage of degraded AR at 100 nM, VCaP cells, 16 h. The class given is cell-based. The procedure: Determination of the Degradation Activity of the Compound on Androgen Receptor (AR) Protein by Western Blot
1) VCaP cells were subcultured in cell culture media, and then the cells in good growth condition were seeded in a 12-well plate at 1 ml/well (5×10^5 cells/well), and cultured overnight in a 37° C., 5% CO2 cell incubator. 2) The test compound was prepared into a 10 mM stock solution with dimethyl sulfoxide (DMSO). Prior to use, the solution was diluted 3 times with DMSO. […] of the diluted compound solution was added to the cell culture well (ensuring that the DMSO concentration in the culture system was 0.1%), and two wells were set for each concentration. The plate was gently shaken to mix. In addition, the experiment included negative control wells (containing equal amount of DMSO) and positive control wells. 3) After culturing 16 h. the cells were lysed with RIPA cell lysate, and the protein was extracted. The protein concentration was measured with BCA kit. 5-fold concentrated protein loading buffer was added, and after heated at 100° C. for 5 min. the sample was stored at −20° C. 4) for each well, 30 μg of protein was loaded on polyacrylamide gel for electrophoresis. 5) The protein was transferred from polyacrylamide gel to PVDF membrane, and then 5% skim milk was added to close for 1 h at room temperature. The first antibody (Androgen Receptor (D6F11) XP Rabbit mAb and Anti-β-Actin Rabbit mAb) was added and incubated overnight at 4° C. The membrane was washed with TBST solution three times. 10 min for each time. The secondary antibody (horseradish peroxidase labeled goat […]) was added and incubated at room temperature for 2 h, and then the membrane was washed with TBST solution three times. 10 min for each time.
Finally, ECL chemiluminescence solution was added, and then photos were taken with automatic chemiluminescence instrument to collect pictures for analysis.
(In general: A western blot detects proteins with antibodies after separation by electrophoresis.)

Compound `N#Cc1ccc(O[C@H]2CC[C@H](NC(=O)c3cnc(N4CC(CN5CC6CN(c7cc8c(cc7F)C(=O)N(C7CCC(=O)NC7=O)C8=O)CC6C5)C4)nc3)CC2)cc1Cl` (some centres unmarked) [Compound 140] returned an inhibition at 0.1 µM of 25 to 49%.
Under `N#Cc1ccc(O[C@H]2CC[C@H](NC(=O)c3cnc(N4CCC(CN5CCC6(CCN(c7cc8c(cc7F)C(=O)N(C7CCC(=O)NC7=O)C8=O)C6)C5)CC4)cn3)CC2)cc1Cl` (some centres unmarked) [Compound 141] stands above 80%.
Under `N#Cc1ccc(O[C@H]2CC[C@H](NC(=O)c3ccc(N4CCC(CN5CCC6(CCN(c7cc8c(cc7F)C(=O)N(C7CCC(=O)NC7=O)C8=O)C6)C5)CC4)nn3)CC2)cc1Cl` (some centres unmarked) [Compound 142, N-((1r,4r)-4-(3-chloro-4-cyanophenoxy)cyclohexyl)-6-(4-((7-(2-(2,6-dioxopiperidin-3-yl)-6-fluoro-1,3-dioxoisoindol-5-yl)-2,7-diazaspiro[4.4]nonan-2-yl)methyl)piperidin-1-yl)pyridazine-3-formamide] stands above 80%.
Under `N#Cc1ccc(O[C@H]2CC[C@H](NC(=O)c3ccc(N4CCC(CN5CCC(Nc6ccc7c(c6)C(=O)N(C6CCC(=O)NC6=O)C7=O)CC5)CC4)nn3)CC2)cc1Cl` (some centres unmarked) [Compound 143] stands above 80%.
As to `N#Cc1ccc(O[C@H]2CC[C@H](NC(=O)c3cnc(N4CCC(CN5CCC(Nc6cc7c(cc6F)C(=O)N(C6CCC(=O)NC6=O)C7=O)CC5)CC4)cn3)CC2)cc1Cl` (some centres unmarked) [Compound 145], the inhibition at 0.1 µM is above 80%.
Compound `N#Cc1ccc(O[C@H]2CC[C@H](NC(=O)c3cnc(N4CCC(CN5CCC(Nc6ccc7c(c6)C(=O)N(C6CCC(=O)NC6=O)C7=O)CC5)CC4)cn3)CC2)cc1Cl` (some centres unmarked) [Compound 146] registered an inhibition at 0.1 µM above 80%.
For `N#Cc1ccc(O[C@H]2CC[C@H](NC(=O)c3cnc(N4CC5CN(CC6CCN(c7cc8c(cc7F)C(=O)N(C7CCC(=O)NC7=O)C8=O)CC6)CC5C4)cn3)CC2)cc1Cl` (some centres unmarked) [Compound 157], the inhibition at 0.1 µM is above 80%.
`N#Cc1ccc(O[C@H]2CC[C@H](NC(=O)c3cnc(N4CC5CN(CC6CN(c7cc8c(cc7F)C(=O)N(C7CCC(=O)NC7=O)C8=O)C6)CC5C4)cn3)CC2)cc1Cl` (some centres unmarked) [Compound 159] registered an inhibition at 0.1 µM of 50 to 79%.
Under `N#Cc1ccc(O[C@H]2CC[C@H](NC(=O)c3ccc(N4CC5CN(CC6CN(c7cc8c(cc7F)C(=O)N(C7CCC(=O)NC7=O)C8=O)C6)CC5C4)nn3)CC2)cc1Cl` (some centres unmarked) [Compound 160] stands below 25%; under `CC1(C)[C@H](NC(=O)c2ccc(N3CC4CN(CC5CN(c6cc7c(cc6F)C(=O)N(C6CCC(=O)NC6=O)C7=O)C5)CC4C3)nn2)C(C)(C)[C@H]1Oc1ccc(C#N)c(Cl)c1` (some centres unmarked) [Compound 161, N-((1r,3r)-3-(3-chloro-4-cyanophenoxy)-2,2,4,4-tetramethylcyclobutyl)-6-(5-((1-(2-(2,6-dioxopiperidin-3-yl)-6-fluoro-1,3-dioxoisoindolin-5-yl)azelaic acid-3-yl)methyl)hexahydropyrrolo[3,4-c]pyrrol-2(1H)-pyrazole)formamide], 50 to 79%.
As for `N#Cc1ccc(O[C@H]2CC[C@H](NC(=O)c3ccc(N4CCC5(CCN(CC6CCN(c7cc8c(cc7F)C(=O)N(C7CCC(=O)NC7=O)C8=O)CC6)C5)C4)nn3)CC2)cc1Cl` (some centres unmarked) [Compound 162, N-((1r,4r)-4-(3-chloro-4-cyanophenoxy)cyclohexyl)-6-(7-((1-(2-(2,6-dioxopiperidin-3-yl)-6-fluoro-1,3-dioxoisoindolin-5-yl)piperidine-4-yl)methyl)-2,7-diazaspiro[4.4]nonan-2-yl)pyridazine-3-formamide], the inhibition at 0.1 µM was above 80%.
For the compound `N#Cc1ccc(O[C@H]2CC[C@H](NC(=O)c3cnc(N4CCC5(CCN(CC6CCN(c7cc8c(cc7F)C(=O)N(C7CCC(=O)NC7=O)C8=O)CC6)C5)C4)cn3)CC2)cc1Cl` (some centres unmarked) [Compound 163], the inhibition at 0.1 µM was above 80%.
Under `N#Cc1ccc(O[C@H]2CC[C@H](NC(=O)c3ccc(N4CCC(N5CCC6(CCN(c7cc8c(cc7F)C(=O)N(C7CCC(=O)NC7=O)C8=O)C6)C5)CC4)nn3)CC2)cc1Cl` (some centres unmarked) [Compound 164, N-((1r,4r)-4-(3-chloro-4-cyanophenoxy)cyclohexyl)-6-(4-(7-(2-(2,6-dioxopiperidin-3-yl)-6-fluoro-1,3-dioxoisoindol-5-yl)-2,7-diazaspiro[4.4]nonan-2-yl)piperidin-1-yl)pyridazine-3-formamide] stands above 80%; under `N#Cc1ccc(O[C@H]2CC[C@H](NC(=O)c3cnc(N4CCC(N5CCC6(CCN(c7cc8c(cc7F)C(=O)N(C7CCC(=O)NC7=O)C8=O)C6)C5)CC4)cn3)CC2)cc1Cl` (some centres unmarked) [Compound 165, N-((1r,4r)-4-(3-chloro-4-cyanophenoxy)cyclohexyl)-5-(4-(7-(2-(2,6-dioxopiperidin-3-yl)-6-fluoro-1,3-dioxoisoindolin-5-yl)-2,7-diazaspiro[4.4]nonan-2-yl)piperidin-1-yl)pyrazine-2-carboxamide], above 80%.
The same measure for `N#Cc1ccc(O[C@H]2CC[C@H](NC(=O)c3cnc(N4CCC5(CCN(C6CCN(c7cc8c(cc7F)C(=O)N(C7CCC(=O)NC7=O)C8=O)CC6)C5)C4)cn3)CC2)cc1Cl` (some centres unmarked) [Compound 167, N-((1r,4r)-4-(3-chloro-4-cyanophenoxy)cyclohexyl)-5-(7-(1-(2-(2,6-dioxopiperidin-3-yl)-6-fluoro-1,3-dioxoisoindolin-5-yl)piperidine-4-yl)-2,7-diazaspiro[4.4]nonan-2-yl)pyrazine-2-carboxamide]: 50 to 79%; for `N#Cc1ccc(O[C@H]2CC[C@H](N3Cc4nc(NC5CCN(CC6CCN(c7ccc8c(c7)C(=O)N(C7CCC(=O)NC7=O)C8=O)CC6)CC5)ccc4C3=O)CC2)cc1Cl` (some centres unmarked) [Compound 172]: below 25%.
Under `N#Cc1ccc(O[C@H]2CC[C@H](N3Cc4nc(N5CCC(CN6CCC(Nc7ccc8c(c7)C(=O)N(C7CCC(=O)NC7=O)C8=O)CC6)CC5)ccc4C3=O)CC2)cc1Cl` (some centres unmarked) [Compound 173] stands below 25%; under `N#Cc1ccc(OC2C[C@@H]3CN(C(=O)c4cnc(N5CCC(CN6CCN(c7ccc8c(c7)C(=O)N(C7CCC(=O)NC7=O)C8=O)CC6)CC5)cn4)C[C@@H]3C2)cc1Cl` (stereo partly drawn) [Compound 174, 2-chloro-4-(((3aR,5r,6aS)-2-(5-(4-((4-(2-(2,6-dioxopiperidin-3-yl)-1,3-dioxoisoindolin-5-yl)piperazin-1-yl)methyl)piperidin-1-yl)pyrazine-2-carbonyl)octahydrocyclopenta[c]pyrrol-5-yl)oxy)benzonitrile], below 25%; under `N#Cc1ccc(O[C@H]2C[C@@H]3CN(C(=O)c4ccc(N5CCC(CN6CCN(c7ccc8c(c7)C(=O)N(C7CCC(=O)NC7=O)C8=O)CC6)CC5)nn4)C[C@@H]3C2)cc1Cl` (stereo partly drawn) [Compound 175, 2-chloro-4-(((3aR,5s,6aS)-2-(6-(4-((4-(2-(2,6-dioxopiperidin-3-yl)-1,3-dioxoisoindolin-5-yl)piperazin-1-yl)methyl)piperidin-1-yl)pyridazine-3-carbonyl)octahydrocyclopenta[c]pyrrol-5-yl)oxy)benzonitrile], below 25%.
With `N#Cc1ccc(O[C@H]2CC[C@H](NC(=O)c3cnc(N4C[C@@H]5[C@@H](CN6CCN(c7cc8c(cc7F)C(=O)N(C7CCC(=O)NC7=O)C8=O)CC6)[C@@H]5C4)cn3)CC2)cc1Cl` (stereo partly drawn) [Compound 176, N-((1r,4R)-4-(3-chloro-4-cyanophenoxy)cyclohexyl)-5-((1R,5S,6S)-6-((4-(2-(2,6-dioxopiperidin-3-yl)-6-fluoro-1,3-dioxoisoindolin-5-yl)piperazin-1-yl)methyl)-3-azabicyclo[3.1.0]hexan-3-yl)pyrazine-2-carboxamide], the inhibition at 0.1 µM was in the range of 50 to 79%.

The term inhibition denotes the share of the control response that was lost under treatment.
